According to PubChem BioAssay (NCI):
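Test compounds were applied to cells in 96-well plates for 48 hours at 5 doses. Here, GI50 denotes the concentration required for 50% inhibition of growth. TGI is the concentration that stops growth completely.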

What was measured:
Assay in all cases: DTP human tumour cell line panel, 48 h
[1] = system: MDA-MB-231 breast
[2] = system: NCI-H23 lung
[3] = system: KM12 colon
[4] = system: DU-145 prostate
[5] = system: OVCAR-8 ovarian
[6] = system: HCC-2998 colon
[7] = system: SK-MEL-28 melanoma
[8] = system: A549 NSCLC
[9] = system: UO-31 renal
[10] = system: SR leukemia

| Compound | GI50 [1] [µM] | TGI [1] [µM] | GI50 [2] [µM] | TGI [2] [µM] | GI50 [3] [µM] | TGI [3] [µM] | GI50 [4] [µM] | TGI [4] [µM] | GI50 [5] [µM] | TGI [5] [µM] | GI50 [6] [µM] | TGI [6] [µM] | GI50 [7] [µM] | TGI [7] [µM] | GI50 [8] [µM] | TGI [8] [µM] | TGI [9] [µM] | TGI [10] [µM] | GI50 [9] [µM] | GI50 [10] [µM] |
| --- | --- | --- | --- | --- | --- | --- | --- | --- | --- | --- | --- | --- | --- | --- | --- | --- | --- | --- | --- | --- |
| CC[C@]12C=CCN3CC[C@@]4(c5ccc(OC)cc5N(C)[C@H]4[C@@](O)(C(=O)OC)[C@@H]1OC(=O)CCC(=O)O[C@H]1CC[C@H]4[C@@H]5CC[C@H]6CC(=O)CC[C@]6(C)[C@H]5CC[C@]14C)[C@@H]32 | 3.03 | 11.3 | 3.54 | > 100 | 3.16 | > 100 | 3.66 | 61.2 | 5.84 | > 100 | 3.34 | > 100 | 3.27 | > 100 | 4.19 | 35.3 | – | – | – | – |
| O=C(CC1(O)C(=O)Nc2ccccc21)c1ccc(Cl)cc1Cl (stereo not given) | – | – | – | > 100 | – | – | – | – | – | > 100 | – | – | – | > 100 | – | > 100 | > 100 | – | – | – |
| O=S1(=O)c2cc(S(=O)(=O)n3ccnc3)ccc2NC2=NCCCN21 | – | – | – | > 100 | – | 89.5 | – | – | – | 70 | – | 55.3 | – | > 100 | – | > 100 | > 100 | 75.6 | – | – |
| CCc1cccc(C(C)CC)c1NC(=O)C(=O)Cc1nc2ccccc2o1 (stereo not given) | – | – | – | > 50 | – | > 50 | – | – | – | > 50 | – | > 50 | – | > 50 | – | > 50 | > 50 | – | – | – |
| CC1(C)N=c2cc3c(cc2N1c1ccc(Cl)cc1)=Nc1ccccc1N3c1ccc(Cl)cc1 | 59.7 | > 100 | 3.16 | 27.9 | 6.84 | > 100 | 7.45 | > 100 | 4.01 | 51.9 | 17.8 | > 100 | 45.3 | > 100 | 5.93 | > 100 | > 100 | – | 2.96 | – |
| COC(=O)/C(=N\NC(N)=O)C(C#N)c1ccccc1 (stereo not given) | – | – | – | > 100 | – | > 100 | – | – | – | > 100 | – | > 100 | – | > 100 | – | > 100 | > 100 | – | – | – |
| CC(=O)NCc1c(C(N)=O)ncn1Cc1ccccc1 | – | – | – | > 100 | – | – | – | – | – | > 100 | – | > 100 | – | > 100 | – | > 100 | – | – | – | – |
| COc1cc(/C=C2\NC(=O)C3Cc4c(OC)c(C)c(OC)c(OC)c4C2N3C)c(OC)c(C)c1OC (stereo not given) | – | – | – | > 100 | – | > 100 | – | – | – | > 100 | – | > 100 | – | > 100 | – | > 100 | > 100 | > 100 | – | – |
| Cc1ccc2[nH]c(C(=O)NN3C(=O)C(C)SC34CCC(C)CC4)c(-c3ccccc3)c2c1 (stereo not given) | 15.4 | 31.6 | 15.2 | 32 | 15.4 | 35.2 | 21.8 | 54.3 | 21.2 | 53.2 | 16.6 | 31.7 | 17.8 | 35.9 | 14.3 | 31.8 | 29.4 | – | 14 | – |
| C1C[OH+]CCNCC[OH+]CC[OH+]CCN1.N.[Cl-].[Pt+4] | – | – | 27.1 | > 100 | 29.5 | > 100 | – | – | 18.8 | > 100 | 54.1 | > 100 | 49.5 | > 100 | 51.3 | > 100 | 80 | – | 20.5 | – |
| O=C1c2cc3c(cc2-c2c1c1ccc(F)cc1c(=O)n2C[C@H](O)[C@H](O)[C@H](O)CO)OCO3 | 0.342 | 6.18 | 0.129 | 0.482 | – | – | 0.199 | 1.59 | 0.203 | 0.66 | – | – | 0.282 | 1.51 | – | – | – | – | – | – |
| Brc1ccc(C=NC23CC4CC(CC(C4)C2)C3)cc1 | – | – | – | > 100 | – | > 100 | – | – | – | > 100 | – | > 100 | – | > 100 | – | > 100 | > 100 | – | – | – |
| COc1cc2c(cc1O)c(=O)n(CCN(C)C)c1c3cc4c(cc3ncc21)OCO4 | 0.0616 | 5.58 | < 0.01 | 0.151 | 0.177 | – | < 0.01 | 1.94 | < 0.0116 | 2.52 | 0.109 | 0.398 | 0.053 | 1.01 | 0.0356 | 0.594 | 0.17 | – | < 0.0124 | – |
| CCCCCCCC(=O)OCC1OC(n2cc(F)c(=O)[nH]c2=O)C(N)C(O)C1O (stereo not given) | – | – | – | > 100 | – | > 100 | – | – | – | > 100 | – | > 100 | – | > 100 | – | > 100 | > 100 | > 100 | – | – |
| O=[N+]([O-])c1cc(I)cc(/C=N/NS(=O)(=O)c2ccc(Cl)cc2)c1O | – | – | – | 34.2 | – | 34.6 | – | – | – | 37.6 | – | 46.3 | – | 73.8 | – | > 100 | 36.8 | 46.2 | – | – |
| N#CC1(N2CCCC2)CCC2(CC1)OCCO2 | – | – | – | > 100 | – | > 100 | – | – | – | > 100 | – | > 100 | – | > 100 | – | > 100 | > 100 | > 100 | – | – |
| O=C(CC1(O)C(=O)Nc2ccc([N+](=O)[O-])cc21)c1ccncc1 (stereo not given) | – | – | – | 73.1 | – | > 100 | – | – | – | > 100 | – | > 100 | – | > 100 | – | > 100 | > 100 | – | – | – |
| COc1cc2c(c(OC)c1OC)-c1c(c3ccc([N+](=O)[O-])cc3c(=O)n1CCCBr)C2=O | 31.3 | > 100 | 68.9 | > 100 | 60.7 | > 100 | – | – | 49.8 | > 100 | 50.4 | > 100 | > 100 | > 100 | 62.8 | > 100 | 72.5 | > 100 | 14.4 | 4.37 |
| N#CC(C(=O)CCC(=O)Nc1cccc(C(F)(F)F)c1)c1ccccc1 (stereo not given) | – | – | – | > 100 | – | > 100 | – | – | – | > 100 | – | > 100 | – | > 100 | – | > 100 | > 100 | – | – | – |
| CCC[CH2][Sn]1([CH2]CCC)[O]CC[S]1 | – | – | 0.398 | 1.82 | 1.19 | 3.02 | – | – | 1.19 | 2.68 | 1.05 | 2.26 | 0.238 | 0.898 | 2.21 | 6.03 | 2.54 | – | 1.28 | – |
